Data from patent US8153683B2, “Methods of treatment using a prodrug of an excitatory amino acid” (Eli Lilly and Company, priority 2002, dated 2012).

Assay: In Vivo Exposure as Measured by Rat Plasma Concentration
Settings: Fischer 344 male rats, sum of the concentrations at 0.5 and 1 hour or at 1 and 3 hour, LC/MS/MS
Method: To study the in vivo exposure of compounds of Formula II following oral dosing of compounds of Formula I in comparison to compounds of Formula II, studies measuring the plasma concentrations of the respective compound of Formula II in rats are performed. Mature Fischer 344 male rats (190-270 gram) are obtained from Harlan Sprague-Dawley, Cumberland, Ind., USA, and acclimated in the study housing for 3 days. […] Blood samples are collected through orbital sinus or cardiac puncture (last time point) at 0.5 and 1 hour or, alternatively, at 1 and 3 hours. Plasma samples are stored at −20° C. in the presence of phenylmethylsulfonyl fluoride, a protease inhibitor, prior to analysis. Plasma samples and internal standard compounds are pretreated by solid phase extraction (SAX support, methanol/water/dilute acetic acid).
As shown in Tables 1A and 1B below, the plasma concentrations (ng/ml) of the respective compound of Formula II for each test compound are determined by LC/MS/MS and are presented as a sum of the concentrations at the 0.5 and 1 hour or, alternatively, at the 1 and 3 hour sample time points.

Compound | Rat Exposure (ng/ml of (1R,2S,4R,5R,6R)-2-(2′S-Aminopropionyl)amino-4-fluorobicyclo[3.1.0]hexane-2,6-dicarboxylic acid hydrochloride) (following 5 mg/kg p.o.) | Rat Exposure (ng/ml of (1R,4S,5S,6S)-4-(2′S-Aminopropionyl)amino-]-2,2-dioxo-2λ^6-thia-bicyclo[3.1.0.]hexane-4,6-dicarboxylic acid hydrochloride) (following 5 mg/kg p.o.) | Rat Exposure (ng/ml of (1R,2S,4R,5R,6R)-2-(2′S-Aminopropionyl)amino-4-fluorobicyclo[3.1.0]hexane-2,6-dicarboxylic acid hydrochloride) (following 10 mg/kg p.o.)
C[C@H](N)C(=O)N[C@@]1(C(=O)O)C[C@@H](F)[C@H]2[C@H](C(=O)O)[C@H]21.Cl [Example 14, (1R,2S,4R,5R,6R)-2-(2′S-Amino-propionyl)amino-4-fluorobicyclo[3.1.0]hexane-2,6-dicarboxylic acid hydrochloride] | 5271 ng/ml (following 5 mg/kg p.o.) |  | 
N[C@@]1(C(=O)O)CS(=O)(=O)[C@H]2[C@H](C(=O)O)[C@H]21 [Non-prodrug form of Example 1, (1R,4S,5S,6S)-4-Amino-2,2-dioxo-2λ^6-thia-bicyclo[3.1.0]hexane-4,6-dicarboxylic acid] |  | 1521 ng/ml (following 5 mg/kg p.o.) | 
N[C@@]1(C(=O)O)C[C@@H](F)[C@H]2[C@H](C(=O)O)[C@H]21 [Non-prodrug form of Example 14, 1R,2S,4R,5R,6R-2-amino-4-fluorobicyclo[3.1.0]hexane-2,6-dicarboxylic acid] | 1162 ng/ml (following 5 mg/kg p.o.) |  | 1342 ng/ml (following 10 mg/kg p.o.)
